Assay results published in patent publication US20130116241A1, “NOVEL INHIBITOR COMPOUNDS OF PHOSPHODIESTERASE TYPE 10A” (AbbVie Inc., priority 2011, published 2013).
Structures can show the parent of a compound that is named as a salt.

These compounds were tested against human PDE10A (UniProt Q9Y233) (assay: Measurement of PDE activity (recombinant enzyme, HTRF cAMP kit)). Details: Table 1, substrate 20 nM for PDE10, 60 minutes at 29 C.
Format: biochemical
Outline: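 HTRF detection of cAMP left after hydrolysis, expressed as percent of uninhibited control to derive IC50. Reaction: serially diluted inhibitor mixed with recombinant enzyme, started with 20 nM cAMP, 60 min at 29 °C in Tris-HCl pH 7.5 buffer containing MgCl2 and BSA.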

Chain of human PDE10A (Q9Y233 290-1055 limits assumed): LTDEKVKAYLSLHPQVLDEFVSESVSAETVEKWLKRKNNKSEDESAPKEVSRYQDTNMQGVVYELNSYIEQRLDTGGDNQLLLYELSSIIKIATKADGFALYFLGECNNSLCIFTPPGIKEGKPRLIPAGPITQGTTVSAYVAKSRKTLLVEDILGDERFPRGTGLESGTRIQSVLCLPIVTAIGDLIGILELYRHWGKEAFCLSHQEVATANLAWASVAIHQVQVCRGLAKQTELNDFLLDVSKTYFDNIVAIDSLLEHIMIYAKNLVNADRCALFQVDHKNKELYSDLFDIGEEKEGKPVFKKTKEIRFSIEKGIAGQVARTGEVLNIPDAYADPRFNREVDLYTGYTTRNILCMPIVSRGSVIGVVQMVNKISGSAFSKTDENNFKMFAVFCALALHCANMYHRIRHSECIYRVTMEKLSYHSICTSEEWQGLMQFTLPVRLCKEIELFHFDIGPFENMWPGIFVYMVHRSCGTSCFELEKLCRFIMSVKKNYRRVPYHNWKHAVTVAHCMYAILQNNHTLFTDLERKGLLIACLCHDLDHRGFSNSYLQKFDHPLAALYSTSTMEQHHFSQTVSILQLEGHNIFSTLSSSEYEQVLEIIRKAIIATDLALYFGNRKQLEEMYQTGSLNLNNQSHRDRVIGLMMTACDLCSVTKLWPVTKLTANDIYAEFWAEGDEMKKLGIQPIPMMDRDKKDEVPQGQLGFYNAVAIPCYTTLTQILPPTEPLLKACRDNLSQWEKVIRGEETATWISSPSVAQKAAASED

SMILES | IC50 [nM]
O=c1c2c(N3C4CCC3COC4)cccc2ccn1C1CC1c1ccc2ccccc2n1 [Example 263, anti 8-((1R,5S)-3-oxa-8-azabicyclo[3.2.1]octan-8-yl)-2-(2-(quinolin-2-yl)cyclopropyl)isoquinolin-1(2H)-one] | < 100

Same assay, conditions: Table 1, substrate 20 nM for PDE10, 60 minutes at 29 C, read-out: IC50

SMILES | IC50 [nM]
O=c1c2c(N3CCOCC3)csc2ccn1CCc1ccc2ccccc2n1 [Example 211, 3-(Morpholin-4-yl)-5-[2-(quinolin-2-yl)ethyl]thieno[3,2-c]pyridin-4(5H)-one hydrochloride] | 200 to 500
O=c1c2c(C3=CCNCC3)csc2ccn1CCc1ccc2ccccc2n1 [Example 213, 5-(2-(Quinolin-2-yl)ethyl)-3-(1,2,3,6-tetrahydropyridin-4-yl)thieno[3,2-c]pyridin-4(5H)-one hydrochloride] | 200 to 500
O=c1c2c(C3CCNCC3)csc2ccn1CCc1ccc2ccccc2n1 [Example 215, 3-(Piperidin-4-yl)-5-[2-(quinolin-2-yl)ethyl]thieno[3,2-c]pyridin-4(5H)-one trifluoroacetate] | 100 to 200
O=c1c2c(-c3ccncc3)coc2ccn1CCc1cn2ccccc2n1 [Example 230, 5-(2-(Imidazo[1,2-a]pyridin-2-yl)ethyl)-3-(pyridin-4-yl)furo[3,2-c]pyridin-4(5H)-one hydrochloride] | 100 to 200
O=c1c2c(N3CC[C@H](O)C3)cccc2ccn1C1CC1c1ccc2ccccc2n1 (stereo partly drawn) [Example 249, anti 8-((3S)-3-hydroxypyrrolidin-1-yl)-2-(2-(quinolin-2-yl)cyclopropyl)isoquinolin-1(2H)-one di[(2E)-but-2-enedioate]] | 200 to 500
O=c1c2c(N3CC[C@@H](O)C3)cccc2ccn1C1CC1c1ccc2ccccc2n1 (stereo partly drawn) [Example 250, anti 8-((3R)-3-hydroxypyrrolidin-1-yl)-2-(2-(quinolin-2-yl)cyclopropyl)isoquinolin-1(2H)-one (2E)-but-2-enedioate] | 100 to 200
O=c1c2c(-c3ccncc3)cccc2ccn1C1CC1c1ccc2ccccc2n1 (stereo not drawn) [Example 256, syn 8-(pyridin-4-yl)-2-(2-(quinolin-2-yl)cyclopropyl)isoquinolin-1(2H)-one hydrochloride] | < 100
O=c1c2c(C3CCOCC3)cccc2ccn1C1CC1c1ccc2ccccc2n1 (stereo not drawn) [Example 257, anti 2-(2-(quinolin-2-yl)cyclopropyl)-8-(tetrahydro-2H-pyran-4-yl)isoquinolin-1(2H)-one] | < 100
O=c1c2c(N3CCC(C(F)F)C3)cccc2ccn1C1CC1c1ccc2ccccc2n1 (stereo not drawn) [Example 262, anti 8-(3-(difluoromethyl)pyrrolidin-1-yl)-2-(2-(quinolin-2-yl)cyclopropyl)isoquinolin-1(2H)-one, trifluoroacetate] | 100 to 200
O=c1c2c(N3C[C@H]4CC[C@@H](C3)O4)cccc2ccn1C1CC1c1ccc2ccccc2n1 (stereo partly drawn) [Example 266, 8-((1R,5S)-8-oxa-3-azabicyclo[3.2.1]octan-3-yl)-2-(2-(quinolin-2-yl)cyclopropyl)isoquinolin-1(2H)-one] | < 100
O=c1c2c(-c3ccoc3)cccc2ccn1C1CC1c1ccc2ccccc2n1 (stereo not drawn) [Example 268, anti 8-(furan-3-yl)-2-(2-(quinolin-2-yl)cyclopropyl)isoquinolin-1(2H)-one] | < 100
O=c1c2c(C3=COCC3)cccc2ccn1C1CC1c1ccc2ccccc2n1 (stereo not drawn) [Example 269, anti 8-(4,5-dihydrofuran-3-yl)-2-(2-(quinolin-2-yl)cyclopropyl)isoquinolin-1(2H)-one] | < 100
O=c1c2c(-c3cccnc3)cccc2ccn1C1CC1c1ccc2cc(F)ccc2n1 (stereo not shown) [Example 272] | < 100
O=c1c2c(-c3ccncc3)cccc2ccn1C1CC1c1ccc2cc(F)ccc2n1 (stereo not shown) [Example 274] | < 100
O=c1c2c(-c3ccncc3)cccc2c(F)cn1C1CC1c1ccc2ccccc2n1 (stereo not drawn) [Example 275, anti 4-fluoro-8-(pyridin-4-yl)-2-(2-(quinolin-2-yl)cyclopropyl)isoquinolin-1(2H)-one] | < 100
O=c1c2c(-c3ccncc3)cncc2cnn1CCc1ccc2ccccc2n1 [Example 301, 8-(pyridin-4-yl)-2-[2-(quinolin-2-yl)ethyl]pyrido[3,4-d]pyridazin-1(2H)-one] | < 100
O=c1c2c(-c3ccncc3)csc2c(F)cn1C1CC1c1ccc2ccccc2n1 (stereo not shown) [compound 279] | < 100

Further lines, results first:

IC50 [nM] | SMILES
< 100 | O=c1c2c(-c3ccncc3)csc2ccn1CCc1cn2ccccc2n1 [Example 210, 5-[2-(Imidazo[1,2-a]pyridin-2-yl)ethyl]-3-(pyridin-4-yl)thieno[3,2-c]pyridin-4(5H)-one hydrochloride]
< 100 | Cc1csc2c(-c3ccncc3)cn(CCc3ccc4ccccc4n3)c(=O)c12 [Example 216, 3-Methyl-7-(pyridin-4-yl)-5-(2-(quinolin-2-yl)ethyl)thieno[3,2-c]pyridin-4(5H)-one]
< 100 | O=c1c2c(N[C@@H]3CCNC3)cccc2cnn1CCc1cn2ccccc2n1 [Example 219, 2-[2-(Imidazo[1,2-a]pyridin-2-yl)ethyl]-8-[(3R)-pyrrolidin-3-ylamino]phthalazin-1(2H)-one dihydrochloride]
< 100 | O=c1c2c(-c3ccncc3)cccc2ccn1/C=C/c1ccc2ccccc2n1 [Example 221, (E)-8-(Pyridin-4-yl)-2-(2-(quinolin-2-yl)vinyl)isoquinolin-1(2H)-one]
< 100 | O=c1c2c(-c3ccncc3)cccc2ccn1CCc1ccc2ccccc2n1 [Example 223, 8-(Pyridin-4-yl)-2-(2-quinolin-2-yl-ethyl)isoquinolin-1(2H)-one]
< 100 | O=c1c2c(-c3ccncc3)cccc2cnn1/C=C/c1ccc2ccccc2n1 [Example 225]
< 100 | O=c1c2c(-c3ccncc3)coc2ccn1CCc1ccc2ccccc2n1 [Example 228, 3-(Pyridin-4-yl)-5-(2-(quinolin-2-yl)ethyl)furo[3,2-c]pyridin-4(5H)-one hydrochloride]
< 100 | O=c1c2c(-c3ccncc3)coc2ccn1CCc1nc2ccccc2[nH]1 [Example 229, 5-(2-(1H-Benzo[d]imidazol-2-yl)ethyl)-3-(pyridin-4-yl)furo[3,2-c]pyridin-4(5H)-one hydrochloride]
< 100 | O=c1c2c(-c3cncnc3)coc2ccn1CCc1ccc2ccccc2n1 [Example 231, 3-(Pyrimidin-5-yl)-5-(2-(quinolin-2-yl)ethyl)furo[3,2-c]pyridin-4(5H)-one]
< 100 | C=C(Cn1ncc2nccc(-c3ccncc3)c2c1=O)c1ccc2ccccc2n1 [Example 234, 4-(Pyridin-4-yl)-6-(2-(quinolin-2-yl)allyl)pyrido[2,3-d]pyridazin-5(6H)-one]
< 100 | O=c1c2c(-c3cccnc3)cccc2ccn1C1CC1c1ccc2ccccc2n1 (stereo not drawn) [Example 239, anti 8-(pyridin-3-yl)-2-(2-(quinolin-2-yl)cyclopropyl)isoquinolin-1(2H)-one hydrochloride]
< 100 | O=c1c2c(N3CCC[C@H](O)C3)cccc2ccn1C1CC1c1ccc2ccccc2n1 (stereo partly drawn) [Example 244, anti 8-((3S)-3-hydroxypiperidin-1-yl)-2-(2-(quinolin-2-yl)cyclopropyl)isoquinolin-1(2H)-one (2E)-but-2-enedioate]
< 100 | O=c1c2c(N3CCOCC3)cccc2ccn1C1CC1c1ccc2ccccc2n1 (stereo not drawn) [Example 246, anti 8-morpholino-2-(2-(quinolin-2-yl)cyclopropyl)isoquinolin-1(2H)-one]
